In patent publication EP2792359A1, “Treatment of L-DOPA-induced dyskinesia with OPC-14523 or OPC-34712” (Merz Pharma GmbH & Co. KGaA, priority 2013, dated 2014):

What was measured:
6-OHDA-lesioned rats = assay: L-DOPA induced dyskinesia (AIM scores) in the 6-OHDA-lesioned rat model of Parkinson's disease; assay type: in vivo, Sprague Dawley rats; settings: for reduction of LID: comparators, data not shown, dose not given
[1] = biological target: T1, Muscarinic acetylcholine receptors M2 (Homo sapiens, UniProt P08172); settings: cited from earlier work
T1 sequence (P08172 1-466): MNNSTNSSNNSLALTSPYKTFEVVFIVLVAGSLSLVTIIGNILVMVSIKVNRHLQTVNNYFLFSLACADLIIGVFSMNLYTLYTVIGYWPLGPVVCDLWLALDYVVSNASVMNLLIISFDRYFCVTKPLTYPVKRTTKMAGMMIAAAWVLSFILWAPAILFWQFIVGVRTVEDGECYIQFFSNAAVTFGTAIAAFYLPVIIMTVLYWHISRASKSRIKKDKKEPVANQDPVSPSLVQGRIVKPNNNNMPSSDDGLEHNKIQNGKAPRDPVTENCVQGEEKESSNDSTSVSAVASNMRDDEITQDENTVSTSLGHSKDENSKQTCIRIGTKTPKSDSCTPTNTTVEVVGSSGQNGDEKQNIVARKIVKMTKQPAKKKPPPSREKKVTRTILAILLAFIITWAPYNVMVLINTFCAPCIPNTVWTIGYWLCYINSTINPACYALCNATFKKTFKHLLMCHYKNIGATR

5-HT2B = biological target: T2, 5-HT2B (Homo sapiens, UniProt P41595); assay: 5-HT2B IP-One HTRF assay (Euroscreen FAST-0506I); assay type: cell-based
T2 construct: host or cells: CHO-K1
T2 sequence (P41595 whole entry): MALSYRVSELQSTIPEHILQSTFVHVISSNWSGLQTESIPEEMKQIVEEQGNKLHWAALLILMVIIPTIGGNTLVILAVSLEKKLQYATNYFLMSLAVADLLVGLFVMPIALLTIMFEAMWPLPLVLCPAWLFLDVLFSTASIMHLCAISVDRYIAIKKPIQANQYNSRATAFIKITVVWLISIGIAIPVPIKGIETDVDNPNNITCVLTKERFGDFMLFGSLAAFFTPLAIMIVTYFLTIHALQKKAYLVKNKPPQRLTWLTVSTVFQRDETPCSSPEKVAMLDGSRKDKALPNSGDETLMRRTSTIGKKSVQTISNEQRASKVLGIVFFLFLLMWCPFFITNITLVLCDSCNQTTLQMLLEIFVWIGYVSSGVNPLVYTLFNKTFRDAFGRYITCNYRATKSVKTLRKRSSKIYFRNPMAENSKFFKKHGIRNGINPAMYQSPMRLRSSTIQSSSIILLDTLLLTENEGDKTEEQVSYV
Experimental: B. 5-HT2B assay (performed at Euroscreen, order no.: FAST-0506I):
The 5-HT2B [00136] IP-One HTRF assay was conducted with recombinant cell lines, receptor accession numbers, cellular background and reference compounds are shown in Table 1.
Cells expressing human recombinant 5-HT2B (FAST-506I) grown to mid-log phase in culture media without antibiotics will be detached with PBS-EDTA, centrifuged and resuspended in medium without antibiotics buffer. 20,000 cells will be distributed in a 96 well plate and incubated overnight at 37°C with 5% CO2.
For agonist testing, the medium will be removed and 20 µl of assay buffer plus 20 µl of test compound or reference agonist will be added in each well. The plate will be incubated for 60 min at 37°C with 5% CO2.
For antagonist testing, 20 µl of test compound or reference antagonist is added and the plate is incubated for 15 min. at 37°C in a humidified atmosphere of 95% air with 5% CO2, then 20 µl of reference agonist at a final concentration corresponding to the historical EC80 is added. […]
IP1-D2 reagent and anti-IP1 cryptate reagents will be then dispensed in the wells and DeltaF percentage values will be then calculated following the manufacturer (CisBio) recommendations. […]
(§1) Dose-response data from test compounds were analyzed with XLfit (IDBS) software using nonlinear regression applied to a sigmoidal dose-response model (4 Parameter Fit).

[2] = biological target: Muscarinic acetylcholine receptors M3 (Homo sapiens, UniProt P20309); settings: cited from earlier work
Muscarinic acetylcholine receptors M3, sequence (P20309 whole entry): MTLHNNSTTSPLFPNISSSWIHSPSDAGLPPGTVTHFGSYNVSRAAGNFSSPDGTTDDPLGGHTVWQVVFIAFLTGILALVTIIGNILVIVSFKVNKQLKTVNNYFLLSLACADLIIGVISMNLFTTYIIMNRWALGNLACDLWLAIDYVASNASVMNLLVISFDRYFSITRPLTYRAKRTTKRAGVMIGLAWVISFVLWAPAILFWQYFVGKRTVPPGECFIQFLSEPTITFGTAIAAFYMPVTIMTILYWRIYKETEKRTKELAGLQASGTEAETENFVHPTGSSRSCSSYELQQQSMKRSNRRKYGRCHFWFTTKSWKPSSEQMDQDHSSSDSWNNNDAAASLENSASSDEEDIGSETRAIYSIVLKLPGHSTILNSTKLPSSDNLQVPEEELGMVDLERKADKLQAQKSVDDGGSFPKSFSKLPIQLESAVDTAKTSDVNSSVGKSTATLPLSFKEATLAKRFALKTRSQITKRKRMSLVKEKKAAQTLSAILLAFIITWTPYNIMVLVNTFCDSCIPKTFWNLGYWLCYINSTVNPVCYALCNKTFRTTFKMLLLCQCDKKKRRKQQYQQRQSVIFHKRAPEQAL

[3] = biological target: T3, Muscarinic acetylcholine receptors M1 (Homo sapiens, UniProt P11229); settings: cited from earlier work
T3 sequence (P11229 1-460): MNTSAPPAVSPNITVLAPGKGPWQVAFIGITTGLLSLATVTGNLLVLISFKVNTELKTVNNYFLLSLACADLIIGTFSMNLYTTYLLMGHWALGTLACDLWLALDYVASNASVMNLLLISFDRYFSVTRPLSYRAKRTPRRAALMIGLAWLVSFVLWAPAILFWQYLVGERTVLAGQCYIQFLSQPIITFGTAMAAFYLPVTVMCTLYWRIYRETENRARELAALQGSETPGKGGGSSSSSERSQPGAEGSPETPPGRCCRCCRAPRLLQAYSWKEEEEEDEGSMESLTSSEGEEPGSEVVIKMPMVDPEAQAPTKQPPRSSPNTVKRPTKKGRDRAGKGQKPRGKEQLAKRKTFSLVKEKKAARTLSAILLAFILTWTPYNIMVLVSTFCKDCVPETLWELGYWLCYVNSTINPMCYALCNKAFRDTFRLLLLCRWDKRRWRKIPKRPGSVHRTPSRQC

5-HT1B = biological target: T4, 5-HT1B (Homo sapiens, UniProt P28222); assay: 5-HT1B cAMP HTRF assay (agonist test, Euroscreen FAST-0501C); assay type: cell-based
T4 construct: host or cells: CHO-K1
T4 sequence (P28222 whole entry): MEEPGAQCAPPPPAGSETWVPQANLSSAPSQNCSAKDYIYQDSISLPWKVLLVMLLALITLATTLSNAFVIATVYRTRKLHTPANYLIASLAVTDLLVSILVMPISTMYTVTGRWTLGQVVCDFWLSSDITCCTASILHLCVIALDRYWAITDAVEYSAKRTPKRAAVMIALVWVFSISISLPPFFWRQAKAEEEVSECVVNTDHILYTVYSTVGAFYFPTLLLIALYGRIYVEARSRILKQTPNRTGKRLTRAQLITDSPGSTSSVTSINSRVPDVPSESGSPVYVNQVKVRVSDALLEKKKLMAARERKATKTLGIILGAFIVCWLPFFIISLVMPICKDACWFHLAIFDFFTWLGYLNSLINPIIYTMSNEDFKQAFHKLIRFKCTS
Experimental: (§2) A. In vitro 5-HT1A/B Activity Measurements: 5-HT1A/B cAMP HTRF assay (performed at Euroscreen, order no.: 5-HT1A:FAST-0500C, 5-HT1B: FAST-0501 C)
(§3) CHO-K1 cells expressing each human recombinant receptor (see Table 1) grown prior to the test in media without antibiotic were detached by gentle flushing with PBS-EDTA, recovered by centrifugation and resuspended in assay buffer. Dose response curves are performed in parallel with the reference compounds.
(§4) For agonist tests (96well): 12 µl of cells were mixed with 6 µl of the test compound at increasing concentrations and 6 µl of forskolin then incubated 30 min at room temperature. After addition of the lysis buffer and 1 hour incubation, cAMP concentrations were estimated, according to the manufacturer specification, with the HTRF kit (Cisbio).
Assay buffer consisted of: 5 mM KCI, 1.25 mM MgSO4, 124 mM NaCl, 25 mM HEPES, 13.3 mM Glucose, 1.25 mM KH2PO4, 1.45 mM CaCl2, and 0.5 g/I BSA. PBS-EDTA contained 137 mM NaCl, 2.7 mM KCI, 10 mM Na2HPO4, 2 mM KH2PO4 and 5 mM EDTA. Cell lines used were derived from CHO-K1 stably expressing the human receptors needed for the pharmacological testing (see Table 1). 5-Carboxamidotryptamine (5-CT) was used as reference agonist.
On each day of experimentation, reference compounds were tested at several concentrations in duplicate (n=2) to obtain a dose-response curve and an estimated EC50 value.
Reference values thus obtained for the test were compared to historical values obtained from the same receptor and used to validate the experimental session. […] For replicate determinations, the maximum variability tolerated in the test was of +/-20% around the average of the replicates.
as §1
(§5) Agonist activity of test compounds is expressed as a percentage of the activity of the reference agonist at a saturating concentration.

NMDA receptor = settings: cited from earlier work
5-HT1A = biological target: T5, 5-HT1A (Homo sapiens, UniProt P08908); assay: 5-HT1A cAMP HTRF assay (agonist test, Euroscreen FAST-0500C); assay type: cell-based
T5 construct: host or cells: CHO-K1
T5 sequence (P08908 1-422): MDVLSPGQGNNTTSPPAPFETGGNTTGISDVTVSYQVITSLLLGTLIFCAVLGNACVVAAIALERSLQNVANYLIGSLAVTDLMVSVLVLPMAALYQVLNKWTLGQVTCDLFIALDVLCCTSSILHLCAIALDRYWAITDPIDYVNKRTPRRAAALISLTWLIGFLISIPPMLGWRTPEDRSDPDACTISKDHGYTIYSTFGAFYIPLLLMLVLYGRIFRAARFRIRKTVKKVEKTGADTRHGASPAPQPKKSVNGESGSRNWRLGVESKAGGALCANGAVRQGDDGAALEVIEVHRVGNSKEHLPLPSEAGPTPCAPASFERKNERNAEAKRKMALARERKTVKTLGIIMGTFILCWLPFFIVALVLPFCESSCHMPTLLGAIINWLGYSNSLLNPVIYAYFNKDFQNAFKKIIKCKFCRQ
Experimental: as §2, §3, §4
Assay buffer consisted of: 5 mM KCI, 1.25 mM MgSO4, 124 mM NaCl, 25 mM HEPES, 13.3 mM Glucose, 1.25 mM KH2PO4, 1.45 mM CaCl2, and 0.5 g/I BSA. PBS-EDTA contained 137 mM NaCl, 2.7 mM KCI, 10 mM Na2HPO4, 2 mM KH2PO4 and 5 mM EDTA. […]
as §1, §5

[4] = cited from earlier work
MAO-A = biological target: T6, MAO-A (Homo sapiens, UniProt P21397); settings: cited from earlier work
T6 sequence (P21397 1-527): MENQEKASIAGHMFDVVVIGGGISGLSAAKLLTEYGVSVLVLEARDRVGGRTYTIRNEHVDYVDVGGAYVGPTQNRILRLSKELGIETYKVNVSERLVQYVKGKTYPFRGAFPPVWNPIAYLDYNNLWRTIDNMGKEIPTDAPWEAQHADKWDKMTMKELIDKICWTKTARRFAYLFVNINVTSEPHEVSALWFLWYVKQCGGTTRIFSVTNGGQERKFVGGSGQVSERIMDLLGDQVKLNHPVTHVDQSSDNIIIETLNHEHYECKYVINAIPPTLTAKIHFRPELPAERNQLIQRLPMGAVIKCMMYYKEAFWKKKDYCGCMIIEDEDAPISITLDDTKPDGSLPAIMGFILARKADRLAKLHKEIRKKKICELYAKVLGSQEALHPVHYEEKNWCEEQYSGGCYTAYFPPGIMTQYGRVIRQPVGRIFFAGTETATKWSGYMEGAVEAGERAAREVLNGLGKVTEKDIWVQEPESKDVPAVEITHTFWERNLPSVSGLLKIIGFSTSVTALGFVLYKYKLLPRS

MAO-B = biological target: T7, MAO-B (Homo sapiens, UniProt P27338); settings: cited from earlier work
T7 sequence (P27338 1-520): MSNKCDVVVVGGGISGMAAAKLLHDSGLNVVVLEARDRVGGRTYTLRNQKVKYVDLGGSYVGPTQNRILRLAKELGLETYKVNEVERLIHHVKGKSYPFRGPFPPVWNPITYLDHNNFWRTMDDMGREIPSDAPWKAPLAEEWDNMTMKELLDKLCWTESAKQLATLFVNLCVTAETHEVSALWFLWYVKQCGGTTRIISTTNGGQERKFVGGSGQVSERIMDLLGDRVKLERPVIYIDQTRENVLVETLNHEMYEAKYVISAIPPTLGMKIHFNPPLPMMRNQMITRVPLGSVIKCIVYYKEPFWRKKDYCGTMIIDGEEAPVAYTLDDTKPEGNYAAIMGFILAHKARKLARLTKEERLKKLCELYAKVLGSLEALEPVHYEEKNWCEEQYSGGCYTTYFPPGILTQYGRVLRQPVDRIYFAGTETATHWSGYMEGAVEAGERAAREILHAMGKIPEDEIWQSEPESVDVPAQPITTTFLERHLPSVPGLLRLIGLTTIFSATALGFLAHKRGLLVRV

Compound: NC12CC3CC(CC(C3)C1)C2 [Amantadine]
- reduction of LID (6-OHDA-lesioned rats): -25%

Compound: c1cc2c(c(N3CCNCC3)c1)OCCO2 [Eltoprazine]
- reduction of LID (6-OHDA-lesioned rats): -60%

Compound: COc1cccc2c1CCC(=O)N2CCCN1CCN(c2cccc(Cl)c2)CC1 [OPC-14523, 1-[3-[4-(3-Chlorophenyl)piperazin-1-yl]propyl]-5-methoxy-1,2,3,4-tetrahydroquinolin-2-one]
- effect on LID (AIM scores) (6-OHDA-lesioned rats; 10 mg/kg p.o., 10 min before L-DOPA/benserazide 6/15 mg/kg i.p.): strongly reduced LID
- activity at Muscarinic acetylcholine receptor M2 [1]: inactive
- IC50 (5-HT2B): 160 nM
- activity at Muscarinic acetylcholine receptor M3 [2]: inactive
- activity at Muscarinic acetylcholine receptor M1 [3]: inactive
- Emax (5-HT1B; 0.5 h, CHO-K1 cells, human recombinant receptor, percentage of the activity of reference agonist 5-CT at saturating concentration, read-out: partial agonism, efficacy at 5-HT1B): ~60%
- EC50 (5-HT1B; CHO-K1 cells, human recombinant receptor, cAMP with forskolin, read-out: partial agonism at 5-HT1B (potency)): 7 nM
- action at the 5-HT1B receptor (5-HT1B; human recombinant cell lines): partial agonist
- activity at NMDA receptor (NMDA receptor): inactive
- EC50 (5-HT1A): 26 nM
- Emax (5-HT1A; 0.5 h, CHO-K1 cells, human recombinant receptor, percentage of the activity of reference agonist 5-CT at saturating concentration, read-out: partial agonism, efficacy at 5-HT1A): ~60%
- adverse events in Phase 1 studies [4]: no adverse events
- activity at MAO-A (MAO-A): inactive
- activity at MAO-B (MAO-B): inactive
